Experimental data taken from patent US20210069223A1, “USE OF COMPOUND FOR PREVENTING AND/OR TREATING OBESITY” (TCI CO., LTD., priority 2019, published 2021).

Test system: bone marrow stromal cells of mice (ATCC CRL-2749) differentiated into adipocytes
Assay: Promoting lipolysis: glycerol outside the cells measured by glycerol assay kit in adipocytes differentiated from bone marrow stromal cells
Assay type: cell-based
Conditions: cultured at 37° C. for 7 days, OD 540 nm, FIG. 12; for lipolysis promoted in comparison with the control group: 10 μg compound per mL in the well
Procedure: According to the present embodiment, bone marrow stromal cells of mice were used for testing the efficacy of the compound TC-CA-01, the compound TCI-CA-02, the compound TC-CA-03, the compound TCI-CA-04, and the compound TCI-CA-05 for prompting lipolysis. The bone marrow stromal cells of mice were purchased from American Type Culture Collection (American ATCC®), and the No. was CRL-2749M. Before differentiation, the cells were cultured in a pre-adipocyte expansion medium, including 90 vol % of an α-MEM (Minimum Essential Medium Eagle-Alpha Modification, purchased from Gibco, No. 11095080, America) cell culture medium, and 10 vol % of fetal bovine serum (purchased from Gibco, No. 10437-028, America). In addition, 1.0 vol % of penicillin-streptomycin (purchased from Gibco, No. 15140122, America) was added. A differentiation medium was used for differentiating the bone marrow stromal cells of mice, and included 90 vol % of α-MEM cell culture medium, and 10 vol % of fetal bovine serum. In addition, 1.0 vol % of penicillin-streptomycin was added.
The bone marrow stromal cells of mice were inoculated in a culture tray by 8×10^4 cells/0.5 mL of the above pre-adipocyte expansion medium in each well. Culture was performed at 37° C. for 7 days. The culture medium in each well was replaced by the above mentioned fresh differentiation medium once every 3 days during the period. After 7 days, a microscope was used to observe and confirm that the lipid droplets have formed so as to ensure the cells completely differentiated into adipocytes. […]
Then, a value of glycerol outside the cells was measured by a glycerol assay kit (purchased from Cayman Chemical, No. 10011725, America). […] This kit quantified the value of glycerol outside the cells by measuring the content of a product of a coupling enzyme reaction system capable of generating a bright purple, and used a glycerol standard in the kit to build a standard curve so as to reckon the value of the glycerol outside the cells of a sample. […]

| SMILES | lipolysis promoted in comparison with the control group [%] | efficacy for promoting lipolysis in comparison with the control group (result in words) (10 μg of each compound per mL in the well) |
| --- | --- | --- |
| O=C1CC(c2ccc(O)cc2)Oc2cc(O)cc(O)c21 (stereo not drawn) [TCI-CA-03, 5,7-Dihydroxy-2-(4-hydroxyphenyl) chroman-4-one] | 15 |  |
| C[C@@H]1O[C@@H](O[C@H]2[C@H](Oc3cc(O)c4c(c3)O[C@H](c3ccc(O)cc3)CC4=O)O[C@H](CO)[C@@H](O)[C@@H]2O)[C@H](O)[C@H](O)[C@H]1O [TCI-CA-02] | 8 |  |
| COc1cc(/C=C/C(=O)O)ccc1O [TCI-CA-01, 4-hydroxy-3-methoxycinnamic acid] |  | effectively promoted |
